These results are taken from article PMC11359831, “Stepwise Structural Simplification of the Dihydroxyanthraquinone Moiety of a Multitarget Rhein-Based Anti-Alzheimer Lead to Improve Drug Metabolism and Pharmacokinetic Properties” (Pharmaceutics, 2024).

One may read the solubility as the dissolved amount per volume that the medium holds. The low end stands for little dissolved substance, the high end for much dissolved substance. Usually IC50 stands for the midpoint of a concentration-inhibition curve. The low end stands for greater potency in that assay, the high end for weaker potency in that assay. By Solubility is commonly meant the concentration that dissolves in the medium under given conditions. The low end stands for a poorly soluble substance, the high end for a readily soluble substance.

A short description of data set [1]: physchem. To be noted: PBS (99%) with DMSO (1%), 37 °C, aqueous buffer, kinetic from dmso stock, kinetic solubility.
Method: The resulting solutions were incubated at 37 °C. After 2 h incubation, the samples were read using a BMG LABTECH NEPHELOstar Plus laser nephelometer (Ortenberg, Germany).
Data set [2] deals with T1, human serum BChE (hBChE) (Homo sapiens, UniProt P06276).
T1 construct: human serum BChE (hBChE); purchased Sigma (Milan, Italy); host or cells: human serum
The data set is described as follows: biochemical. To be noted: for IC50: human serum BChE, Ellman method, mean ± standard error; for increase in hBChE inhibitory activity relative to hybrid 3: relative to dihydroxyanthraquinone hybrid 3.
Method: The stock and assay solutions were prepared as follows:
Stock hBChE solution: solution of the lyophilized powder in 0.1% aq. gelatin.
Stock solutions of the new compounds: 1 mM solutions in methanol, with further dilutions in this solvent to the desired concentrations.

The target in data set [3] is T2, tau aggregation (Homo sapiens, UniProt P10636).
T2 construct: expressed in transfected cells; host or cells: E. coli BL21 (DE3) bearing pTARA and pRKT42
The data set is described as follows: Tau aggregation inhibition in genetically modified E. coli cells (Th-S fluorescence). The data set is classed as cell-based, Escherichia coli. To be noted: live E. coli cells overexpressing tau; for inhibition at 10 µM: read-out: Tau Aggregation % inh. @10 µM. On the procedure: For tau overexpression, M9 minimal medium (10 mL) containing glucose (0.5%), ampicillin (50 μg/mL), chloramphenicol (12.5 μg/mL), and E. coli BL21 (DE3) cells bearing the pTARA plasmid, which carries the RNA polymerase gene of the T7 phage (T7RP) under control of the PBAD promoter, and subsequent transformation with the pRKT42 vector were used instead. In this case, the overnight culture for a 1:500 dilution was added to fresh M9 minimal medium containing glucose (0.5%), chloramphenicol (12.5 μg/mL), ampicillin (50 μg/mL), and Th-S (250 µM).
For Aβ42 overexpression, the corresponding E. coli cell cultures were kept growing overnight (37 °C; 250 rpm) until they reached an OD600 = 0.6. These cultures (980 μL) were added to a mixture of 10 μL of a solution of the new compounds in DMSO and 10 μL of 100 mM isopropyl 1-thio-β-D-galactopyranoside (IPTG), to reach a final compound concentration of 10 μM. The same procedure was used for tau overexpression but employing 10 μL of 25% arabinose instead of IPTG. The resulting E. coli cultures were kept growing overnight (37 °C; 1400 rpm) using an Eppendorf Thermomixer (Hamburg, Germany). To prepare a negative control for the assay, showing the highest amount of the amyloidogenic protein, the same quantity of DMSO, without the compounds to be tested, was added to the sample. With the double purpose of obtaining positive controls devoid of the amyloidogenic proteins and assessing the potential intrinsic toxicity of the new compounds, we also prepared samples that had not been treated with either IPTG or arabinose (non-induced samples).
To assess the inhibitory activity of compounds 4–7 on Aβ42 and tau aggregation within E. coli cells, a fluorescence assay was employed, using Th-S ([…] stock solution, T1892, Sigma, St. Louis, MO, USA) in double-distilled water (Milli-Q system, Millipore, Bay City, MI, USA) and an Aminco Bowman Series 2 luminescence spectrophotometer (Aminco-Bowman AB2, SLM Aminco, Rochester, NY, USA), working at 25 °C in the wavelength range of 460–600 nm, with λex = 445 nm, slit widths of 4 nm, and λem = 485 nm. The results are given as the average of nine independent experiments, each performed in triplicate.

Data set [4] in a line: Plasma stability, mouse plasma. The data set is classed as in vitro ADME. The note with it: 37 °C.
Data set [5] can be described thus: Plasma stability, rat plasma. The note with it: 37 °C. The data set is classed as in vitro ADME.
The conditions of data set [6]: PAMPA-BBB. For orientation: In PAMPA a lipid-coated filter parts donor from acceptor wells.
Method: The parallel artificial membrane permeability assay for the blood–brain barrier (PAMPA-BBB) [41] was used to assess the in vitro brain permeability of the new compounds. For the assay, the compounds were dissolved in mixtures of PBS and ethanol (70:30).
Data set [7] addresses T3, human recombinant BACE-1 (hBACE-1) (Homo sapiens, UniProt P56817).
T3 construct: purchased Invitrogen, Carlsbad, CA, USA
Details: method as in PMID 24568372. The note with it: cited from earlier work.

Data set [8] concerns zebrafish embryos. The data set is described as follows: Fish embryo acute toxicity (FET) test in zebrafish embryos. The note with it: 72 h of exposure, lethality. The data set is classed as in vivo. The procedure: Test solutions were freshly prepared for each experiment and were renewed every 24 h. The maximum tested compound concentration was 100 µM and four additional concentrations were also prepared by applying a 1:2 dilution factor. A 1% DMSO solution was used as a vehicle control.
Six-well plates were incubated at 26 ± 1 °C under a 14:10 light:dark cycle for 72 h. To assess the potential lethality of the new compounds, we followed, every 24 h, the four parameters that are outlined in the OECD Guideline No. 236: embryo coagulation, lack of somite formation, non-detachment of the tail, and absence of a heartbeat (from 48 h onward). The percentage of lethality at each concentration that was tested for the new compounds was recorded and expressed as mean ± SEM from three or more independent experiments. […] LOAEC values were determined through an ANOVA test with Bonferroni’s post-hoc test for multiple comparisons (significance threshold: p < 0.05).

Where [9] appears, read: Solubility class, classification after ref 70.
The mark [10] stands for this setting: Solubility, 2 h, DMSO (1%)/PBS (99%).
Where [11] appears, read: Solubility, 2 h, PBS with 1% DMSO, nephelometry.

≈ marks a conversion by molar mass, not a printed value. Where “and” joins values, the source holds several entries; their conditions need not be identical. Equal entries are not always repeated. Bounds are passed on as bounds.

T2 sequence (P10636 other isoform, or with tags, fused parts or gaps): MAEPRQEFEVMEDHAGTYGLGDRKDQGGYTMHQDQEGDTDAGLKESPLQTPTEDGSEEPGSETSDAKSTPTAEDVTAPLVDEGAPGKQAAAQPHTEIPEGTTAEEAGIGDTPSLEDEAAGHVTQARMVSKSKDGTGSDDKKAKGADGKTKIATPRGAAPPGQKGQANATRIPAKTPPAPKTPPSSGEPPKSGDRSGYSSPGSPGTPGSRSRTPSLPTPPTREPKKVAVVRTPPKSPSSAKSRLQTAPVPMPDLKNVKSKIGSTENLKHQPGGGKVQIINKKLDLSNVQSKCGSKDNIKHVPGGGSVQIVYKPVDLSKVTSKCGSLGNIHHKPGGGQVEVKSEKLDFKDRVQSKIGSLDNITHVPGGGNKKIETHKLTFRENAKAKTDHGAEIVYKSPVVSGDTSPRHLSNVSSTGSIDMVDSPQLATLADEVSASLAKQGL
T1 sequence (P06276 29-602): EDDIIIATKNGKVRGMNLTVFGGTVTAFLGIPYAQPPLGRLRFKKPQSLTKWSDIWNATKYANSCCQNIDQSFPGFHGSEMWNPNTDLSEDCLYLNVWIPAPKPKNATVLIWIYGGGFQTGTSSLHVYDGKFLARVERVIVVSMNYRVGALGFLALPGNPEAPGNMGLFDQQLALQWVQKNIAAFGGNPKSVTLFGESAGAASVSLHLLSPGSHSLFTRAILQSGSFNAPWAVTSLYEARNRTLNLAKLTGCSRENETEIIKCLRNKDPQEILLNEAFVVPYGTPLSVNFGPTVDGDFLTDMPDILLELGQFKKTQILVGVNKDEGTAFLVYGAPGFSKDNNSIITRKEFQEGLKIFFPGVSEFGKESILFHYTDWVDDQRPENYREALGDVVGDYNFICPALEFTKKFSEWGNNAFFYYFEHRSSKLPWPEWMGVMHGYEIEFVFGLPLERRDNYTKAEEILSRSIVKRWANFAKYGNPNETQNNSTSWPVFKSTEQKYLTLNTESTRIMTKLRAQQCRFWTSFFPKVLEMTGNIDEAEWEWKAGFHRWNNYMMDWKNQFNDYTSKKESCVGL
T3 sequence (P56817 46-501): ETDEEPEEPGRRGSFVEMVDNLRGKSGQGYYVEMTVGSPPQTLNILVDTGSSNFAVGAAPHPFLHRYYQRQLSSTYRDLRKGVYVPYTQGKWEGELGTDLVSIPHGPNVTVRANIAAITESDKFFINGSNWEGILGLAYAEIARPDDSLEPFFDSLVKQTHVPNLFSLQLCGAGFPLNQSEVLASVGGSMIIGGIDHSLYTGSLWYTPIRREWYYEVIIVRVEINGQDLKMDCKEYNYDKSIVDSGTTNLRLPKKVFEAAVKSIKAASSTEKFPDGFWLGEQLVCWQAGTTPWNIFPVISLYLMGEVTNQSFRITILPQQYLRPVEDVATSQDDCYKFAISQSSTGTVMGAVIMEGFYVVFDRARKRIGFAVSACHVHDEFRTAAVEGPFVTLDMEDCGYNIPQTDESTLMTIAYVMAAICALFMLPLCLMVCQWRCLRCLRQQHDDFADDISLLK

For `CC1=CC2Cc3nc4cc(Cl)ccc4c(NCCCCCCCCCNC(=O)c4ccc5c(c4)C(=O)c4ccccc4C5=O)c3C(C1)C2` (stereo not shown) [Compound 4, N-{9-[(3-Chloro-6,7,10,11-tetrahydro-9-methyl-7,11-methanocycloocta[b]quinolin-12-yl)amino]nonyl}anthraquinone-2-carboxamide], the solubility at 2 h was less than 10 µg/mL in data set [1] (setting [9]), 5.9 µg/mL in data set [1] (setting [10]) and 8.4 µM in data set [1] (setting [11]). The molecule further came in with an IC50 in data set [2] of 1.25 ± 0.13 µM. Further, the inhibition at 10 µM in data set [3] amounted to 63 ± 3.5%.

With `CC1=CC2Cc3nc4cc(Cl)ccc4c(NCCCCCCCCCNC(=O)c4cc(O)c5c(c4)C(=O)c4cccc(O)c4C5=O)c3C(C1)C2` (stereo not shown) [Compound 3], the “% hydrolyzed in mouse plasma after 6 h” value in data set [4] is on record as 7.1%. The “% hydrolyzed in rat plasma after 6 h” value in [5] is 32.1%. The “BBB permeation class” value in data set [6] (CNS+ threshold Pe over 5.21 × 10^−6 cm/s) is “CNS+ (high BBB permeation (CNS+), with Pe (10^−6 cm/s) > 5.21)”. Further, the “Brain Permeability Pe” value in data set [6] (mean ± SD) is reported as 21.5 ± 0.7 10^−6 cm s^−1. Further, in data set [7], the “BACE-1 inhibition (in words)” value is “found to inhibit BACE-1”. The solubility at 2 h in data set [1] (setting [9]) is less than 10 µg/mL; in data set [1] (setting [10]), 6.3 µg/mL; in [1] (setting [11]) it was 8.6 µM. In data set [8], this molecule registered an LOAEC of 100 µM. Also, the inhibition at 10 µM in data set [3] is 58.2 ± 1.8%.

Regarding `CC(=O)c1cccc(C(=O)NCCCCCCCCCNc2c3c(nc4cc(Cl)ccc24)CC2C=C(C)CC3C2)c1` (stereo not shown) [Compound 7, 3-Acetyl-N-{9-[(3-chloro-6,7,10,11-tetrahydro-9-methyl-7,11-methanocycloocta[b]quinolin-12-yl)amino]nonyl}benzamide], the “% hydrolyzed in rat plasma after 6 h” value in [5] stood at 14.2%. Where the note is “kinetic solubility, 37 °C, 2 h, PBS with 1% DMSO, nephelometry”, this molecule yielded a Solubility of 18.1 µM (≈ 10.4 µg/mL). In addition, the “increased aqueous solubility relative to the initial lead” value (relative to lead 3) was 2 fold. The solubility at 2 h is 10 to 100 µg/mL in data set [1] (setting [9]), 11 µg/mL in [1] (setting [10]) and 18 µM in [1] (setting [11]). For the same molecule, the IC50 in data set [2] is 0.013 µM and 0.0127 µM. Moreover, the “increase in hBChE inhibitory activity relative to hybrid 3” value in data set [2] is recorded as 40–50 fold. The “Tau Aggregation % inh. @10 µM” value in data set [3] is given as 68.3 ± 3.1%. Besides, the inhibition at 10 µM in [3] stood at 68%.

Take `CC1=CC2Cc3nc4cc(Cl)ccc4c(NCCCCCCCCCNC(=O)c4ccc5c(c4)C(=O)c4ccccc4-5)c3C(C1)C2` (stereo not shown) [Compound 5, N-{9-[(3-Chloro-6,7,10,11-tetrahydro-9-methyl-7,11-methanocycloocta[b]quinolin-12-yl)amino]nonyl}-9-fluorenone-2-carboxamide]: the solubility at 2 h in data set [1] (setting [9]) is less than 10 µg/mL; in data set [1] (setting [10]) it was 5.4 µg/mL; in [1] (setting [11]), 8.1 µM. For the same molecule, the IC50 in [2] was 0.883 ± 0.055 µM. Moreover, the inhibition at 10 µM in [3] was 68.9 ± 2.1%.

Turning to `CC1=CC2Cc3nc4cc(Cl)ccc4c(NCCCCCCCCCNC(=O)c4cccc(C(=O)c5ccccc5)c4)c3C(C1)C2` (stereo not shown) [Compound 6, 3-Benzoyl-N-{9-[(3-chloro-6,7,10,11-tetrahydro-9-methyl-7,11-methanocycloocta[b]quinolin-12-yl)amino]nonyl}benzamide], the solubility at 2 h was less than 10 µg/mL in data set [1] (setting [9]), 8.4 µg/mL in data set [1] (setting [10]) and 12.5 µM in [1] (setting [11]). The molecule also gave an LOAEC in data set [8] of 50 µM. The molecule further came in with an IC50 in data set [2] of 0.0165 ± 0.0019 µM. Besides, the “increase in hBChE inhibitory activity relative to hybrid 3” value in data set [2] is listed as 40–50 fold. Besides, the inhibition at 10 µM in [3] came to 62.5 ± 2.1%.
